For data set [1] the following is noted: rabbits, liposomal preparations s.c. 100 nmol/kg, 3 rabbits per group; passes if below 1.1° C. The procedure:
The test was conducted in an authorised laboratory, ITEST plus s.r.o., Bilé Vchýnice 10, 533 13 Vápno u Prelouce, Czech Republic, according to guide-lines CL 2005.
Rabbits (New Zeeland albino, 4-6 kg, 3 animals per group) were used for testing.
Liposomal preparations of muramyl glycopeptide derivatives were administered s.c. (100 nmol/kg). Empty liposomes were used as negative control and the liposomal as well as the free form of muramyl dipeptide (MDP) (25 μg/kg, corresponding to 50.7 nmol/kg) served as positive control. Temperature was measured in 1, 2, 3, 4,6 and 24 hour intervals.
Empty liposomes were used as negative control; and liposomal as well as free muramyl dipeptide (MDP) (50.7 nmol/kg) served as positive control. B30-norAbu-MDP (MT01, structure on page 5) served as additional control. Temperature was measured in 1, 2, 3, 4, 6 and 24 h intervals. The preparation passed the test if the Sum of ΔTmax remained below 1.1° C. (3 rabbits per group)

Data set [2] deals with r-hsp90 (Candida albicans hsp90) specific IgG antibodies. Nature of the data set: Proteoliposome vaccine against C. albicans hsp90: antibody (humoral) response, ELISA. The following applies: Experiment 12.2; liposomal compound (5%) + Ni-HSP90, boost day 14; FIG. 13. The format is in vivo, BALB/c mice. The procedure: Proteoliposomes were prepared by coupling recombinant hsp90 antigen (r-hsp90, 6×HISTag) via a metal chelating lipid to liposomes containing muramyl glycopeptide derivatives as adjuvant component. BALB/c […] mice 4 to 5 weeks old (female 20±2 g, 5 animal per group) were immunized by the intradermal route either with 20 μg of free or liposomal r-hsp90 (volume of 60 μl) either with or without L18-norAbu-MDP and boosted 21 days later by the same composition of experimental vaccine. FCA was used as positive control r-hsp90. Liposomal vaccine composition 20 μg of rHSP90 antigen, 5% metallochelating lipid, 5% particular MT analogue, 90% phospolipids.
Blood samples were collected from the tail vein into heparinised capillary PCV tubes. After centrifugation, the upper part of the tube, containing […] blood serum, was cut off, thrown into […] diluting solution and thoroughly shaken. Thus, a basic dilution of 1:33 was obtained. The pre-diluted sera were kept at −20° C. Blood samples were collected before the first immunization, 2 weeks thereafter and subsequently at weekly intervals up to the 4th week after the second immunisation. Specific IgG antibodies in blood serum samples were determined by the standard indirect ELISA procedure. The data obtained were processed statistically using the non-parametric Mann-Whitney U-test.
Proteoliposomes with muramyl glycopeptide derivatives were prepared as described above, but the boost was carried out already after 14 days. The liposomal vaccine composition was as for Experiment Set 1: 20 μg of rHSP90 antigen, 5% metallochelating lipid, 5% particular MT analogue, 90% phospolipids.
Controls: Aluminum hydroxide (AlOH) and Freund complete adjuvans (FCA) were used as positive controls. PBS with empty liposomes was used as negative control (control). Humoral response was tested at day 14 after vaccination (post priming) and at day 20 after vaccination (post booster). Antibody titres were wer assayed by ELISA.

For data set [3], the system named is NK sensitive K562 cell line. Put plainly: NK cell cytotoxicity of human PBMC, 51Cr-release against K562. The format is cell-based. The settings on record: range 0.1 μM-100 μM; FIG. 28. The procedure:
Ex vivo effects of test compounds on NK cells were evaluated on human peripheral blood mononuclear cells (PBMC). The NK cell cytotoxicity of healthy donors in the presence or absence of test compounds was measured in standard 4 hrs ^51Cr-release assay against NK sensitive K562 cell line in effector (PBMC) to target (K562) ratio 16:1. Test compounds were added at a concentration of 10^−7 mol/ml.
Testing of compounds 23, 24, 32, 33, 40 and 41 for their capacity to induce cell-mediated cytotoxicity of human eripheral blood mononuclear cells (PBMCs) is shown in FIGS. 27 and 28. All donors were healthy. […] The cytotoxicity of untreated controls (30.5%) was renormalized to 100%.

In data set [4] the test system is GM-CFC progenitors in bone marrow. Nature of the data set: GM-CFC recovery, test compounds before sub-lethal irradiation. In kind it is in vivo, ICR/CD-1 mice. The following applies: s.c. 100 nmol 24 h before 6 Gy, day 13; FIGS. 33-35. The procedure: (§1) Institite of Cancer Research (ICR/CD-1) mice (female, age of 3 months, 3-4 per group) were stimulated by s.c. administration of test compounds (volume of 200 μl, 100 nmol per dose) 24 h before sublethal γ-irradiation (6 Gy, ^60Co γray source Chisostat, Chirana Ltd., Czech Republic, at a dose of 0.285 Gy/min.). Mice were sacrified at day 13 and recovery of GM-CFC in femour was assayed by counting of colonies (CFC) formed after cultivation in medium. Non-irradiated mice were used as control for normal GM-CFC count in femour. PBS and empty liposomes were used as controls for spontaneous recovery. Liposomal MDP was used as reference standard.
(§2) The following parameters of hemopoiesis were evaluated: • a) Blood leukocyte counts and bone marrow cellularity. Blood leukocytes (samples of blood drawn from an incision of the tail vein) and nucleated cell elements of the femoral bone marrow (femoral diaphyses flushed with saline) were estimated by means of Coulter Counter (Model ZN, Coulter Electronics). • b) Colony-forming cells in spleen. Endogenous spleen colony-forming units (E-CFUs) were measured on day 9 post the whole-body irradiation with 6.5 Gy (5 mice per group) according to Till and McCulloch. • c) GM-CFC progenitors in bone marrow. Femoral bone marrow cells were obtained from mice by flushing the femour with sterile IMDM medium. Harvested cells were calculated and diluted to 1.5×10^5 cells/ml and plated in triplicate in a semisolid environment created by plasma clot (Iscovess modification of Dulbecco's medium, 20% of fetal calf serum, 10% of colony-stimulating factor, 10% of citrate plasma, and CaCl2 1.5 mg/ml). The cultures were incubated for 7 days at 37° C. in 5% CO2. Colonies of at least 50 cells were scored at 40× magnification.
Statistical significance between individual experimental groups of mice in hemopoietic parameters was calculated by one-way analysis of variance. The Newman-Keuls test for comparison of all pairs of columns and the Dunnett test for comparison of all columns with the control column were used in the analysis.

For data set [5] the test system is unchanged. Nature of the data set: GM-CFC recovery, test compounds after sub-lethal irradiation. In kind it is in vivo, ICR/CD-1 mice. The settings on record: s.c. 100 nmol 24 h after 6 Gy, FIG. 36. The procedure:
as §1, §2
The method is exactly as described above except that the test compounds (volume of 200 μl, 100 nmol per dose) were administered 24 h after sublethal γ-irradiation (6 Gy).

The test system of another data set is Salmonella enteritidis. Put plainly: Stimulation of innate immunity against Salmonella Enteritidis. The settings on record: liposomal, 20 nmol per dose p.o. 72 and 24 h before infection (LD50); 5 mice.
In data set [6] the test system is Friend leukemia virus (FLV). Nature of the data set: Friend leukemia virus infection: survival, TER-119+ cells, spleen. The following applies: for clonal expansion of TER-119+ erythroleukaemia cells in spleen / spleen size (weight): day 16; for clonal expansion of TER-119+ erythroleukaemia cells in spleen: FIG. 24; for spleen size (weight): FIG. 25; for survival, early phase (day 43): saline control 82%.

For data set [7], the system named is NK-sensitive YAC1 target cells. Put plainly: NK cell-mediated cytotoxicity of spleen mononuclear cells, 51Cr-release against YAC1. The settings on record: FLV-inoculated mice, day 16, 18 h incubation with YAC1; FIG. 26.
For data set [8], the system named is tetanus toxoid (TaT) specific IgG antibodies. Further details: species or system BALB/c mice. The following applies: mouse, in vivo, sc.
The test system of data set [9] is myelin basic protein induced EAE. Nature of the data set: Experimental allergic encephalomyelitis (EAE), Th1 adjuvant activity. The format is in vivo, guinea pigs.

The values that follow come from patent US8653049B2, “Normuramyl glycopeptide compounds” (priority 2008, dated 2014).

“Also recorded” adds a separate entry of the source.

With `CCCCCCCCCCCCCCCCCC(=O)NCCCC[C@H](NC(=O)CC[C@@H](NC(=O)[C@H](CC)NC(=O)CO[C@H]1[C@H](O[C@@H]2O[C@H](CO)[C@@H](O)[C@H](O)[C@H]2NC(C)=O)[C@@H](CO)OC(O)[C@@H]1NC(C)=O)C(N)=O)C(=O)O` (stereo partly drawn) [Compound 40, N-[2-O-(2-Acetamido-2-deoxy-βD-glucopyranosyl-(1→4)-2-acetamido-2,3-dideoxy-D-glucopyranose-3-yl)-glycoloyl]-L-α-aminobutanoyl-D-isoglutaminyl-L-lysine(stearoyl)], in data set [1], the “+ΔTmax (Sum of ΔTmax)” value was found to be 0.6 °C. Moreover, the “antibody response to r-hsp90 proteoliposomes” value in [2] was “strong and comparable to AlOH”. Further, in [3], the “dose response of NK cell activity” value is “negative dose response”. In addition, in data set [4], the “GM-CFC progenitor cells in bone marrow” value is “acceptable performance”. Further, the “GM-CFC progenitor cells in bone marrow” value in [5] is given as “strongest performers; also recorded: strongest effect; also recorded: one of the best effects”. In the data set with Salmonella enteritidis, the “Day 6 Intest.: clear/infected/dead” value is recorded as 4/1/0, the “Day 6 Liver: clear/infected/dead” value is 4/1/0, the “Day 6 Lungs: clear/infected/dead” value is 4/1/0 and the “Day 6 Spleen: clear/infected/dead” value is recorded as 5/0/0. In the data set with Salmonella enteritidis, the “Day 12 Intest.: clear/infected/dead” value is on record as 0/2/3, the “Day 12 Liver: clear/infected/dead” value is 1/1/3, the “Day 12 Lungs: clear/infected/dead” value is listed as 1/1/3 and the “Day 12 Spleen: clear/infected/dead” value is 1/1/3. In data set [6], the “clonal expansion of TER-119+ erythroleukaemia cells in spleen” value is “dose-dependent, positive effect” and the “spleen size (weight)” value was “spleen size slightly lower than the control”. Besides, in data set [7], the “NK cell activity (cell-mediated cytotoxicity of SMCs)” value is reported as “stimulate NK cell functional activity”.
For `CCCCCCCCCCCCCCCCCC(=O)N[C@H]1[C@H](O[C@H]2[C@H](OCC(=O)N[C@@H](CC)C(=O)N[C@H](CCC(=O)O)C(N)=O)[C@@H](NC(C)=O)C(O)O[C@@H]2CO)O[C@H](CO)[C@@H](O)[C@@H]1O` (stereo partly drawn) [Compound 23, N-[2-O-(2-deoxy-2-stearoylamino-β-D-glucopyranosyl-(1→4)-2-acetamido-2,3-dideoxy-α-D-glucopyranosid-3-yl)-glycoloyl]-L-α-aminobutanoyl-D-isoglutamine], in data set [1], the “+ΔTmax (Sum of ΔTmax)” value was found to be 0.7 °C. In data set [8], the anti-TaT antibody response entry is listed as “did not show a significant antibody response” and the “anti-TaT antibody response (adjuvant activity)” value is listed as “Strong adjuvant activity”. In addition, the “dose response of NK cell activity” value in data set [3] was “positive dose response”. The “Positive animals (%) (incidence of EAE)” value in data set [9] (50 μg myelin basic protein + 1 mg test compound in FIA, footpads, up to day 21, FCA positive control) was 86%. Also, the “Th1 stimulation (EAE)” value in data set [9] (guinea pigs sensitized with bovine MBP in IFA + compound, FIG. 31) was “superior to MDP and GMDP as Th1 adjuvants”. In addition, in [5], the “GM-CFC progenitor cells in bone marrow” value is recorded as “strongest effect”. Also, the “GM-CFC progenitor cells in bone marrow” value in data set [5] (listed as compound 23) was “strongest performers”. In the data set with Salmonella enteritidis, the “Day 6 Intest.: clear/infected/dead” value is listed as 2/3/0, the “Day 6 Liver: clear/infected/dead” value was 0/5/0, the “Day 6 Lungs: clear/infected/dead” value was 1/4/0 and the “Day 6 Spleen: clear/infected/dead” value is 0/5/0. For the same molecule, in the data set on Salmonella enteritidis, the “Day 12 Intest.: clear/infected/dead” value is 1/2/2, the “Day 12 Liver: clear/infected/dead” value was 1/2/2, the “Day 12 Lungs: clear/infected/dead” value was 1/2/2 and the “Day 12 Spleen: clear/infected/dead” value is listed as 1/2/2. Besides, the “survival, late phase (days 55 and 59), long-term” value in data set [6] (10 μmol i.p., non-liposomal, control 0%, FIG. 23) is recorded as “clearly worse at day 55”. In addition, the “survival, early phase (day 43)” value in data set [6] (10 μmol i.p., non-liposomal, FIG. 23) is “survival not worse than control at day 43”. Besides, in [6] (10 μmol i.p., non-liposomal, FIG. 23, listed as compound 23), the “survival, early phase (day 43)” value was “slightly better than saline control”. Moreover, in data set [6] (52 infected mice, non-liposomal compound i.p. day −10 and −3, infected non-treated 23), the “% of survivors on day 45” value worked out at 45%. Moreover, in data set [6], the “clonal expansion of TER-119+ erythroleukaemia cells in spleen” value is on record as “positive effect on clonal expansion” and the “spleen size (weight)” value is “increased spleen size”.
